We go through one compound from US7964560B2, “Hepatitis C virus inhibitors” (Bristol-Myers Squibb Company, priority 2008, dated 2011).

Like-named read-outs stand apart in the source and are kept apart here.

This test deals with HCV replicon in HUH-7 cells. Kind of test: HCV replicon FRET assay. Type of test: cell-based, Hepatitis C virus (strain 1b). As to conditions: Hepatitis C virus. From the text: An HCV replicon whole cell system was established as described by Lohmann, V. et al., Science, 285(5424):110-113 (1999). This system enabled us to evaluate the effects of our HCV Protease compounds on HCV RNA replication. Briefly, using the HCV strain 1b sequence described in the Lohmann paper (Accession number: AJ238799), an HCV cDNA was synthesized by Operon Technologies, Inc. (Alameda, Calif.), and the full-length replicon was then assembled in plasmid pGem9zf(+) (Promega, Madison, Wis.) using standard molecular biology techniques. The replicon consists of (i) the HCV 5′ UTR fused to the first 12 amino acids of the capsid protein, (ii) the neomycin phosphotransferase gene (neo), (iii) the IRES from encephalomyocarditis virus (EMCV), and (iv) HCV NS3 to NS5B genes and the HCV 3′ UTR. Plasmid DNAs were linearized with ScaI and RNA transcripts were synthesized in vitro using the T7 MegaScript transcription kit (Ambion, Austin, Tex.) according to manufacturer's directions. In vitro transcripts of the cDNA were transfected into the human hepatoma cell line, HUH-7. […] Resulting cell lines were characterized for positive and negative strand RNA production and protein production over time.
The HCV replicon FRET assay was developed to monitor the inhibitory effects of compounds described in the disclosure on HCV viral replication. HUH-7 cells, constitutively expressing the HCV replicon, were grown in Dulbecco's Modified Eagle Media (DMEM) (Gibco-BRL) containing 10% Fetal calf serum (FCS) (Sigma) and 1 mg/ml G418 (Gibco-BRL). Cells were seeded the night before (1.5×10^4 cells/well) in 96-well tissue-culture sterile plates. Compound and no compound controls were prepared in DMEM containing 4% FCS, 1:100 Penicillin/Streptomysin (Gibco-BRL), 1:100 L-glutamine and 5% DMSO in the dilution plate (0.5% DMSO final concentration in the assay). Compound/DMSO mixes were added to the cells and incubated for 4 days at 37° C. After 4 days, cells were first assessed for cytotoxicity using alamar Blue (Trek Diagnostic Systems) for a CC50 reading. The toxicity of compound (CC50) was determined by adding 1/10th volume of alamar Blue to the media incubating the cells. After 4 h, the fluorescence signal from each well was read, with an excitation wavelength at 530 nm and an emission wavelength of 580 nm, using the CYTOFLUOR® Series 4000 (Perspective Biosystems). Plates were then rinsed thoroughly with Phosphate-Buffered Saline (PBS) (3 times 150 μl). The cells were lysed with 25 μl of a lysis assay reagent containing an HCV protease substrate (5× cell Luciferase cell culture lysis reagent (PROMEGA® #E153A) diluted to 1× with distilled water, NaCl added to 150 mM final, the FRET peptide substrate (as described for the enzyme assay above) diluted to 10 μM final from a 2 mM stock in 100% DMSO. The plate was then placed into the CYTOFLUOR® 4000 instrument which had been set to 340 nm excitation/490 nm emission, automatic mode for 21 cycles and the plate read in a kinetic mode. EC50 determinations were carried out as described for the IC50 determinations.

Regarding `C=C[C@@H]1C[C@]1(NC(=O)[C@@H]1C[C@@](SCCCC)(c2ccc(-c3ccccc3)cc2)CN1C(=O)[C@@H](NC(=O)OC(C)(C)C)C(C)(C)C)C(=O)NS(=O)(=O)C1CC1` [Example 1, tert-butyl (S)-1-((2S,4R)-4-(biphenyl-4-yl)-4-(butylthio)-2-((1R,2S)-1-(cyclopropylsulfonylcarbamoyl)-2-vinylcyclopropylcarbamoyl)pyrrolidin-1-yl)-3,3-dimethyl-1-oxobutan-2-ylcarbamate], the half-maximal effective concentration (EC50) (96 h, HUH-7 replicon cells, 4 days, read-out: EC50 value in the replicon FRET assay) was found to be 7.3 nM and the EC50 (Huh-7) was 7.2 to 22 nM.
